Source: BindingDB's records for PubMed 40236523 (Emory University)
Counter-ions that a name gives are not always drawn. Where a SMILES comes first, the peptide text is derived from it. Bridges are numbered along the chain shown (N, C = ends). [ ]: non-standard residue; d: D form. The star is where a group is joined. Trp(7-Me) = Cc1cccc2c(C[C@H](N)C(=O)O)c[nH]c12; Lys(Me3) = C[N+](C)(C)CCCC[C@H](N)C(=O)O; 2Nal = N[C@@H](Cc1ccc2ccccc2c1)C(=O)O; AEF = NCCOc1ccc(C[C@H](N)C(=O)O)cc1; 3Pal = N[C@@H](Cc1cccnc1)C(=O)O; Lys(Me) = CNCCCC[C@H](N)C(=O)O; Pen = CC(C)(S)[C@H](N)C(=O)O; Thp = NC1(C(=O)O)CCOCC1; Me2NCH2CH2 = CN(C)CC*; Tfa = O=C(C(F)(F)F)*; Sar = CNCC(=O)O

The compounds below were run against Signal transducer and activator of transcription 3 (Homo sapiens, UniProt P40763) (assay: Inhibition of STAT3 phosphorylation in human PBMC cells preincubated for 30 mins followed by addition of IL-23 and measured after 10 mins).
Signal transducer and activator of transcription 3, sequence (P40763 whole entry): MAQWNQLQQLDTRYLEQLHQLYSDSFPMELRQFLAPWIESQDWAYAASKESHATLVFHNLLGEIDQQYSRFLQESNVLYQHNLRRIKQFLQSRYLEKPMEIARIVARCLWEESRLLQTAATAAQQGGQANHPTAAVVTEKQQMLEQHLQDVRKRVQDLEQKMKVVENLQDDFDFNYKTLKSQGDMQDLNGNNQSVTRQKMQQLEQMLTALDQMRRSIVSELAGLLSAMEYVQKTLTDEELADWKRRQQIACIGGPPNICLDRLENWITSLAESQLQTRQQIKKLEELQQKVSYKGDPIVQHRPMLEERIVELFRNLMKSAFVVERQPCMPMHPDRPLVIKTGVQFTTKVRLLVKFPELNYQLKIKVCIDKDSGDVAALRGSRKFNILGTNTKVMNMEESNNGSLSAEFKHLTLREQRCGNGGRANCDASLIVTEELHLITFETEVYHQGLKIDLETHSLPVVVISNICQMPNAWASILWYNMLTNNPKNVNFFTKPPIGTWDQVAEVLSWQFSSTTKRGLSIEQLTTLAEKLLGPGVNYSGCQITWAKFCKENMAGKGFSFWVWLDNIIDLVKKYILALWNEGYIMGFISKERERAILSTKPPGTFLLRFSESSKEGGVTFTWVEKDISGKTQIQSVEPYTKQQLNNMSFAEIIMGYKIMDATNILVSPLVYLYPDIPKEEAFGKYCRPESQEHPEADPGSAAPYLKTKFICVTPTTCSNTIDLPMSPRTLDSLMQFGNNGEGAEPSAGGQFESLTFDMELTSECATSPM

IC50 [pM] | Structure (SMILES)
6 | CC(=O)NCCCC[C@@H]1NC(=O)[C@H](Cc2c[nH]c3c(C)cccc23)NC(=O)[C@H]([C@@H](C)O)NC(=O)[C@H](CC(N)=O)NC(=O)[C@@H](NC(=O)CCOCCOCC[N+](C)(C)C)C(C)(C)SSC(C)(C)[C@@H](C(=O)N[C@@H](Cc2ccc(OCCN)cc2)C(=O)N[C@@H](Cc2ccc3ccccc3c2)C(=O)NC2(C(=O)N[C@@H](CCC(=O)O)C(=O)N[C@@H](CC(N)=O)C(=O)N[C@@H](Cc3cccnc3)C(=O)N(C)CC(N)=O)CCOCC2)NC1=O
8 | CC(=O)NCCCC[C@@H]1NC(=O)[C@H](Cc2c[nH]c3c(C)cccc23)NC(=O)[C@H]([C@@H](C)O)NC(=O)[C@H](CC(N)=O)NC(=O)[C@@H](NC(C)=O)C(C)(C)SSC(C)(C)[C@@H](C(=O)N[C@@H](Cc2ccc(OCCCCC[N+](C)(C)C)cc2)C(=O)N[C@@H](Cc2ccc3ccccc3c2)C(=O)NC2(C(=O)N[C@@H](CCCCNC(C)=O)C(=O)N[C@@H](CC(N)=O)C(=O)N[C@@H](Cc3cccnc3)C(=O)N(C)CC(N)=O)CCOCC2)NC1=O
8 | CC(=O)N[C@@H](CCCC[N+](C)(C)C)C(=O)N[C@@H]1C(=O)N[C@@H](CC(=O)N(C)C)C(=O)N[C@@H]([C@@H](C)O)C(=O)N[C@@H](Cc2c[nH]c3c(C)cccc23)C(=O)N[C@@H](CCCCN(C)C(C)=O)C(=O)N[C@H](C(=O)N[C@@H](Cc2ccc(OCCN(C)C)cc2)C(=O)N[C@@H](Cc2ccc3ccccc3c2)C(=O)NC2(C(=O)N[C@@H](CCC(=O)O)C(=O)N[C@@H](CC(N)=O)C(=O)N[C@@H](Cc3cccnc3)C(=O)N(C)CC(=O)N(C)C)CCOCC2)C(C)(C)SSC1(C)C (Ac-[Lys(Me3)][Pen]D(NMe2)T[Trp(7-Me)][Lys(Me)](Ac)[Pen]Y(Me2NCH2CH2)[2Nal][Thp]EN[3Pal][Sar]-NMe2; disulfide 2-7)
3 | CC(=O)N(C)CCCC[C@@H]1NC(=O)[C@H](Cc2c[nH]c3c(C)cccc23)NC(=O)[C@H]([C@@H](C)O)NC(=O)[C@H](CC(=O)N(C)C)NC(=O)[C@@H](NC(=O)C(F)(F)F)C(C)(C)SSC(C)(C)[C@@H](C(=O)N[C@@H](Cc2ccc(OCCN(C)C)cc2)C(=O)N[C@@H](Cc2ccc3ccccc3c2)C(=O)NC2(C(=O)N[C@@H](CCC(=O)O)C(=O)N[C@@H](CC(N)=O)C(=O)N[C@@H](Cc3cccnc3)C(=O)N(C)CC(=O)N(C)C)CCOCC2)NC1=O (Tfa-[Pen]D(NMe2)T[Trp(7-Me)][Lys(Me)](Ac)[Pen]Y(Me2NCH2CH2)[2Nal][Thp]EN[3Pal][Sar]-NMe2; disulfide 1-6)
8 | Cc1cccc2c(C[C@@H]3NC(=O)[C@H]([C@@H](C)O)NC(=O)[C@H](CC(N)=O)NC(=O)[C@@H](NC(=O)C(F)(F)F)C(C)(C)SSC(C)(C)[C@@H](C(=O)N[C@@H](Cc4ccc(OCCN)cc4)C(=O)N[C@@H](Cc4ccc5ccccc5c4)C(=O)NC4(C(=O)N[C@@H](CCC(=O)N(C)C)C(=O)N[C@@H](CC(N)=O)C(=O)N[C@@H](Cc5cccnc5)C(=O)N(C)CC(N)=O)CCOCC4)NC(=O)[C@H](CCC(=O)N(C)C)NC3=O)c[nH]c12 (Tfa-[Pen]NT[Trp(7-Me)]E(NMe2)[Pen][AEF][2Nal][Thp]E(NMe2)N[3Pal][Sar]-NH2; disulfide 1-6)
